Experimental data: patent US9371330B2, “Substituted pyrazino[1,2-a]pyrimidines useful as CBP/catenin antagonists for enhancing asymmetric division of somatic stem cells” (University of Southern California, priority 2011, dated 2016)
“Also recorded” adds a separate entry of the source.

Experiments:
aquaporin 1 = assay: ex vivo human skin assay, qRT-PCR of aquaporin 1; assay type: cell-based; conditions: 24 hrs; 5 uM ICG-001, 5 uM methylated ICG-001, 1 ug/ml RA
Protocol: (§1) Methods. Ex Vivo human skin assay culture conditions were based upon a paper by Varani J et al Experimental and Molecular Pathology, 2004.
(§2) Briefly, human skin (surgical waste from plastic surgery procedures) was obtained and the subcutaneous layer of fat was trimmed manually with a scalpel. The skin was then cut into small fragments about 2 mm square and placed in 6 well plates. 1 ml of keratinocyte culture medium (Gibco 10724-011) with 1% P/S (penstrep antibiotic) was added to each well. The epidermis, bathed in media was placed facing up. On the next day (overnight culture in the media above), the skin fragments were transferred to fresh wells that contained either 5 uM ICG-001, 5-uM methylated ICG-001 or 1 ug/ml of retinoic acid (RA). After 24 hrs, skin samples in culture were removed for RNA isolation and qRT-PCR analysis of genes of interest (e.g. elastin (a gene involved in skin appearance and pliability (e.g., wrinkling) and aquaporin 1, which is involved with hydration.

elastin = assay: ex vivo human skin assay, qRT-PCR of elastin; assay type: cell-based; conditions: 24 hrs; 5 uM ICG-001, 5 uM methylated ICG-001, 1 ug/ml RA
Protocol: as §1, §2

normal stem cell niche = assay: aging mice, long term topical administration; assay type: in vivo, mouse; conditions: 12 months (6 to 18 months of age)
Text: Left mouse is control, whereas right mouse received CBP/catenin (e.g., CBP/β-catenin) antagonists (topical Laura-8 as disclosed herein) for 12 months (from 6 months of age to 18 months of age).

skin injury = skin injury repair in normal and hair-less mice; assay type: in vivo, mouse; conditions: 500 μM in vaseline, once a day for eight days
Protocol: The ability of CBP/catenin (e.g., CBP/β-catenin) antagonist to accelerate injured skin repair in normal mice models (having full hair growth and normal fur) and hair-less mice models was tested. In brief, on day 0, the animals were subjected to skin injury in two spots on the back, hind end of each animal. Each skin injury spot was treated with 500 μM of either Vaseline (petrolatum) (vehicle) or Laura-8 in vaseline once a day for eight days.

hair-less mouse model = assay: hair growth in hair-less mouse model; assay type: in vivo; conditions: vs petroleum jelly
Protocol: The ability of CBP/β-catenin antagonist to stimulate hair growth in a hair-less mouse model was tested. In brief, the animals were treated with either petroleum jelly or Laura-8 for 16 days. In addition, skin samples from each animal were taken and examined for hair-follicle formulation.

[1] = tested on: murine embryonic stem cells (mESCs); assay: long-term culture of murine embryonic stem cells; assay type: cell-based, mouse; conditions: Wnt-dependent
Text: (§3) IQ-1. In addition to ICG-001, a screen of a large chemical library for maintenance of pluripotency in mES cells led to the identification of another compound, termed IQ-1 (FIG. 2b). […] I-Q-1 diminishes the interaction between p300 and beta-catenin thereby increasing the CBP/beta-catenin interaction (24).

[2] = tested on: mitotic cells in the ventricular zone (VZ); assay: symmetric versus asymmetric divisions (Par3 distribution) in the ventricular zone of mouse embryos; assay type: in vivo
Text: Taking advantage of the ready uptake and penetration through the placental barrier of applicant's small molecule Wnt modulators, applicant designed a series of experiments to investigate symmetric versus asymmetric divisions in the ventricular zone (VZ) of the brain during mouse embryonic development. Timed pregnant mice were topically treated for various time periods (1-3 days) with DMSO (vehicle control), the CBP/catenin antagonist ICG-001 or the p300/catenin antagonist IQ-1. Using a previously described protocol (56), the localization of […] (Par3) and DNA was examined in mitotic cells in the VZ. Par3 distributes symmetrically in cells that divide symmetrically and asymmetrically in cells that divide asymmetrically, whereas the DNA distributes symmetrically between the 2 cells. Using fluorescence microscopy, the percentage of mitotic cells dividing symmetrically or asymmetrically could be quantified. […] Antagonizing the CBP/catenin interaction with ICG-001 had no apparent effect yielding similarly, approximately 21% asymmetric divisions. […] Importantly, this decrease in asymmetric divisions upon treatment with IQ-1 could be rescued back essentially to control levels (i.e. ˜21%) by treatment with a 2-fold excess of ICG-001. Even further divergence in symmetric versus asymmetric divisions could be seen upon prolonged treatments. For example, treatment with IQ-1 (i.e., antagonizing p300/catenin interaction leading to increased usage of CBP) for 3 days (E13.5-16.5) decreased asymmetric divisions compared to control from 31% to 7%. […] This reporter mouse expresses EGFP, driven by the Tis21 promoter, in cells that have undergone neurogenic differentiative divisions.
For example, Bultje et al (Bultje R Neuron 63, 189-202, 2009) describe an assay to measure asymmetric distributions in the ventricular zone (vz) to evaluate asymmetric divisions during neurogenesis. Essentially this involves treating the animal (either adult or in utero) for a set period of time with compounds (either p.o., s.c., i.v. or topically) with compounds and then sacrificing the animal and examining the Par3 distribution (e.g., via immunohistochemistry) in mitotic cells vs. DNA distribution (e.g., using DAPI staining) Par3 distributes equally among the two daughter cells during symmetric division and unequally (essentially all in one daughter cell) during asymmetric differentiation.

[3] = tested on: PR72/130 subunit of the serine/threonine phosphatase PP2A; assay: binding to PP2A subunit
Text: as §3

## C[C@H]1C2N(C(=O)NCc3ccccc3)CCC(=O)N2[C@@H](Cc2ccc(O)cc2)C(=O)N1Cc1cccc2ccccc12 (stereo partly drawn) [Me-ICG-001, (6S,9S)—N-benzyl-6-(4-hydroxybenzyl)-9-methyl-8-(naphthalen-1-ylmethyl)-4,7-dioxooctahydro-1H-pyrazino[1,2-a]pyrimidine-1-carboxamide]
Aquaporin 1
  expression of aquaporin 1: larger increase
elastin
  expression of elastin: larger increase

## CCCCCCCCCCCC(=O)Oc1ccc(C[C@H]2C(=O)N(Cc3cccc4ccccc34)C[C@@H]3N(C(=O)NCc4ccccc4)CCC(=O)N32)cc1 [Laura-8]
Normal stem cell niche
  depletion of the normal stem cell niche: does not deplete the normal stem cell niche
Skin injury
  skin healing: significantly accelerated skin healing process
hair-less mouse model; 16 days
  hair growth: significant hair growth
hair-less mouse model
  new hair-follicle formation (skin pathology): new hair-follicles were formed; also recorded: substantial new hair-follicle formation

## CC(=O)c1ccc(N=NC(C(N)=O)=C2NC(C)(C)Cc3ccccc32)cc1 [IQ-1]
[1]
  maintenance of pluripotency: maintains the pluripotency
[2]; 3 days (E13.5-16.5)
  asymmetric divisions in the VZ: 7%
[2]; topical or oral administration to pregnant mice
  effect on number of asymmetric divisions: decreases the number of asymmetric divisions
[2]; topical to timed pregnant mice, 1 day (E13.5 to 14.5)
  asymmetric divisions in the VZ: approximately 9%
[3]
  binding to PR72/130: binds to the PR72/130 subunit of the serine/threonine phosphatase PP2A
